The target of test [1] is Proto-oncogene tyrosine-protein kinase Src (Homo sapiens, UniProt P12931). The experiment in a line: Binding affinity to SRC (unknown origin) assessed as inhibition constant.
Test [2] concerns the target Tyrosine-protein kinase Lyn (Homo sapiens) (UniProt P07948). Briefly: Inhibition of LYN (unknown origin) at 0.1 uM relative to control.
Test [3] has as its target Tyrosine-protein kinase Fyn (Homo sapiens, UniProt P06241). The experiment in a line: Inhibition of full-length human recombinant Fyn using Poly(Glu4, Tyr1) as substrate measured for 60 mins by Kinase-Glo reagent based analysis. For orientation: In Kinase-Glo more light means more ATP remaining.

Chain of Tyrosine-protein kinase Fyn (P06241 whole entry): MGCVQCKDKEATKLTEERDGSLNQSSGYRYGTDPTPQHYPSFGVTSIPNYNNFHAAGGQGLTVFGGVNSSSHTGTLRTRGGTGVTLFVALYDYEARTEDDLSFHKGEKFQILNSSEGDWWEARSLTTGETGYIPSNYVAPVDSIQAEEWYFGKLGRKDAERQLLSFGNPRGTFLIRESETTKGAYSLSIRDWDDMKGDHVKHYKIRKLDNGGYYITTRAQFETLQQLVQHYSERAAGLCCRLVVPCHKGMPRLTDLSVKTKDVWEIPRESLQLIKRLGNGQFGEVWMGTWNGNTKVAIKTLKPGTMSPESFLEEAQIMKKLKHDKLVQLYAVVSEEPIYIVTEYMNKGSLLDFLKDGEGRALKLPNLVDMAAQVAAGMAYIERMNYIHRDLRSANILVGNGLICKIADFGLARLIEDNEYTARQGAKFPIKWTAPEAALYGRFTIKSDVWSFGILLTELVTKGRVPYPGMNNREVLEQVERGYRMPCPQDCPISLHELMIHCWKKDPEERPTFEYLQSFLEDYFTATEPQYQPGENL
Chain of Tyrosine-protein kinase Lyn (Homo sapiens) (P07948 2-512 limits assumed): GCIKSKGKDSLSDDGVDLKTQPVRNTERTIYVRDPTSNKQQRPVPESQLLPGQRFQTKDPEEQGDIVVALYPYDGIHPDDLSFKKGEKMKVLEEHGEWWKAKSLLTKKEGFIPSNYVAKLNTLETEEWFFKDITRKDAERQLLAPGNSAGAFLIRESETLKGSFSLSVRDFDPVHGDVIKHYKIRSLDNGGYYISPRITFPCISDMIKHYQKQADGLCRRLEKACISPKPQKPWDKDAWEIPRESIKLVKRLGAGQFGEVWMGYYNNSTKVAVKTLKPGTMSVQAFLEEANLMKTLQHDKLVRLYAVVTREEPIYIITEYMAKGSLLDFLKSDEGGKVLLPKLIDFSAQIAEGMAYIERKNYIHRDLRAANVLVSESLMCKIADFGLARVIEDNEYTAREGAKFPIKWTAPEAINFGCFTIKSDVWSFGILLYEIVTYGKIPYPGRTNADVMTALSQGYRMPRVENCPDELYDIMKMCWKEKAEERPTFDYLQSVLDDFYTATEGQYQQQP
Chain of Proto-oncogene tyrosine-protein kinase Src (P12931 2-536 limits assumed): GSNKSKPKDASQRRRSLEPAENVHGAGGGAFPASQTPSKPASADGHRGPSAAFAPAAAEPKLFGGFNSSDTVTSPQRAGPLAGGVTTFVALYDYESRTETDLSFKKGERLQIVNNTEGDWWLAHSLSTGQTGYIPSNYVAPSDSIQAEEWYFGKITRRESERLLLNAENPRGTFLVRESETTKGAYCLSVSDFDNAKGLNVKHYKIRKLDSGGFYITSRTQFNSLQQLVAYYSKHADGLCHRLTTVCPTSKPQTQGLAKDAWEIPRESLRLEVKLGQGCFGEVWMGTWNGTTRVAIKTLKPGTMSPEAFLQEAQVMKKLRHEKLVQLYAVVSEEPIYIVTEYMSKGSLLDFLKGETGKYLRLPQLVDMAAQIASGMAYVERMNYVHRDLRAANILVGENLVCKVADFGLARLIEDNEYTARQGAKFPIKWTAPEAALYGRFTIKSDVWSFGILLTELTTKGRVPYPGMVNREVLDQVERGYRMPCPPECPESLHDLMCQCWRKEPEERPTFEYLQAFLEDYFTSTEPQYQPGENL

Consider `Oc1ccc(F)c(Nc2nc(SCCN3CCOCC3)nc3c2cnn3CC(Cl)c2ccccc2)c1` (centres undefined), for which the Ki (usually a measure of affinity in units of concentration, obtained from inhibition or displacement) in test [1] came to 170 nM. Take `CSc1ccc(C(=O)NCc2cc3c(=O)[nH]c(N)nc3[nH]2)cc1`: the inhibition (usually how much of the control response was suppressed) in test [2] was 42%.

Consider `Cc1n[nH]c(Nc2ccc3c(c2)OCO3)nc1=O`, for which, in test [3], the half-maximal inhibitory concentration (IC50) (usually the concentration that gives 50% inhibition) was 4800 nM. For the molecule `Cc1nnc(NC2CCCCC2)nc1O`, the IC50 in test [3] was 760 nM.

For the origin of these results see ChEMBL document CHEMBL5614368, “Fyn, Blk, and Lyn kinase inhibitors: A mini-review on medicinal attributes, research progress, and future insights” (Bioorg Med Chem Lett, 2024).
